Assays:
[1] = biological target: ROR gamma ligand binding domain (Homo sapiens (Human), UniProt P51449); experiment: ROR gamma luciferase reporter assay (GAL4-ROR gamma LBD, HEK293 cells); format: cell-based; conditions: 48 hours treatment, read-out: RORγ luciferase Reporter assay: IC50 (nM) (in range)
Procedure, shortened: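 HEK293 cells were co-transfected with a GAL4 DBD–RORγ LBD fusion (hRluc vector) and a 9xGAL4 UAS luc2P reporter, then treated with compounds for 48 h. Bright-Glo luminescence was used to derive potency.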

[2] = biological target: RORγ LBD (Homo sapiens (Human), UniProt P51449); experiment: ROR gamma radio-ligand binding assay (3H 25-Hydroxycholesterol competitive displacement, dextran charcoal method); conditions: for inhibition at 1 µM: 1 μM compound; for inhibition at 10 µM: 10 μM compound; for IC50: in range
RORγ LBD, sequence (P51449 268-518): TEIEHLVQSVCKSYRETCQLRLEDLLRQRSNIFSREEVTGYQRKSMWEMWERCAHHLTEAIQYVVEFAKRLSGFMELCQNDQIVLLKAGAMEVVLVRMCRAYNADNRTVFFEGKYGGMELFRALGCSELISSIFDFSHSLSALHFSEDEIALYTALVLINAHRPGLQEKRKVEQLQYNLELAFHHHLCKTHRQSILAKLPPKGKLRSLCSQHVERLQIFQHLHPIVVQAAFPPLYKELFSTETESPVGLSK
Description: Gene corresponding to the ligand binding domain of RORγ (247-497 amino acids) was sub-cloned into pGEX4T1 vector. Transformants of E. coli BL21 (DE3) containing pGEX4T1-RORγ (247-497) were grown to an OD of 0.8 at 37° C. and induced with 0.5 mM isopropyl-β-D-thiogalactopyranoside (IPTG) for 18 hours at 18° C. Cells were harvested and resuspended in 20 mM Tris-HCl (pH 8.5), 0.3 M NaCl, 10% Glycerol, 2 mM β-Me (β-Mercaptoethanol), 2 mM CHAPS, protease inhibitors, 0.6 mM PMSF and Lysozyme. Supernatant of lysate was passed through glutathione sepharose 4B affinity beads (GE health care) pre-equilibrated with 20 mM Tris-HCl (pH 8.5), 0.3 M NaCl, 10% Glycerol, 2 mM β-Me. RORγ was eluted using a gradient of reduced glutathione (3-20 mM). Fractions containing RORγ protein were pooled, concentrated and passed through Superdex 75 gel filtration (GE health care) column equilibrated with 20 mM Na-phosphate pH 8.0, 0.2 M NaCl, 10% glycerol. The peak fractions from gel filtration column were pooled and stored at −80° C. for Binding assay.
ROR gamma radioligand binding was performed using ^3H 25-Hydroxycholesterol in a competitive displacement assay using dextran charcoal method. Using 5 nM ^3H 25-Hydroxycholesterol with 300 ng RORγ LBD (in house expressed in E. coli) along with the compound were incubated in the binding buffer (50 mM HEPES, pH 7.5, 150 mM NaCl, 0.01% BSA and 5 mM MgCl2) for 30 min at room temperature. Then dextran-charcoal mixture (0.5% charcoal: 0.05% dextran) was used for separation and the supernatant was read on the Perkin Elmer Trilux Microbeta counter. Dose response curves were generated for 10 compound concentrations using GraphPad Prism software Version 5 (San Diego, Calif., USA) using non-linear regression curve fit for sigmoidal dose response (variable slope).

ROR gamma ligand binding domain, sequence (P51449 269-508): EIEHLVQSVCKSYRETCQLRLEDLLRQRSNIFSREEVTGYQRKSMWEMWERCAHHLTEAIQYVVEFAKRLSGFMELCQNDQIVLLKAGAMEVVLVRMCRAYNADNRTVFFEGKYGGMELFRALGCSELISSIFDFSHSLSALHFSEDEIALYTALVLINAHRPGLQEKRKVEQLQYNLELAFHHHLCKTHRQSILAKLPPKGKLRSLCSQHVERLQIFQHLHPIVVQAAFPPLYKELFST

For `CCS(=O)(=O)c1ccc(CC(=O)Nc2cc(C)c3c(n2)CCC(C)(c2ccc(OC)nc2)C3=O)cc1` (stereo not drawn) [Compound 17, 2-(4-(ethylsulfonyl)phenyl)-N-(6-(6-methoxypyridin-3-yl)-4,6-dimethyl-5-oxo-5,6,7,8-tetrahydroquinolin-2-yl)acetamide], the IC50 [1] was < 100 nM, the inhibition at 1 µM [2] was 92% and the inhibition at 10 µM [2] was 96%.
`CCS(=O)(=O)c1ccc(CC(=O)Nc2cc(C)c3c(n2)CCC(C)(c2ccc(OC)cn2)C3=O)cc1` (stereo not drawn) [Compound 20, 2-(4-(ethylsulfonyl)phenyl)-N-(6-(5-methoxypyridin-2-yl)-4,6-dimethyl-5-oxo-5,6,7,8-tetrahydroquinolin-2-yl)acetamide] showed an IC50 [1] of 100 to 500 nM, an inhibition at 1 µM [2] of 76% and an inhibition at 10 µM [2] of 95%.
For `CCS(=O)(=O)c1ccc(CC(=O)Nc2cc(C)c3c(n2)CCC(C)(c2nccc(OC)n2)C3=O)cc1` (stereo not drawn) [Compound 21, 2-(4-(ethylsulfonyl)phenyl)-N-(6-(4-methoxypyrimidin-2-yl)-4,6-dimethyl-5-oxo-5,6,7,8-tetrahydroquinolin-2-yl)acetamide], the IC50 [1] was < 100 nM, the inhibition at 1 µM [2] was 94% and the inhibition at 10 µM [2] was 92%. The IC50 [2] was 150 to 300 nM.
Compound `CCS(=O)(=O)c1ccc(CC(=O)Nc2cc(C)c3c(n2)CCC(C)(c2cc(OC)ccn2)C3=O)cc1` (stereo not drawn) [Compound 22, 2-(4-(ethylsulfonyl)phenyl)-N-(6-(4-methoxypyridin-2-yl)-4,6-dimethyl-5-oxo-5,6,7,8-tetrahydroquinolin-2-yl)acetamide] has an IC50 [1] of 100 to 500 nM, an inhibition at 1 µM [2] of 76% and an inhibition at 10 µM [2] of 95%.
Compound `CCS(=O)(=O)c1ccc(CC(=O)Nc2cc(C)c3c(n2)CCC(C)(c2nccn4ccnc24)C3=O)cc1` (stereo not drawn) [Compound 26, 2-(4-(ethylsulfonyl)phenyl)-N-(6-(imidazo[1,2-a]pyrazin-8-yl)-4,6-dimethyl-5-oxo-5,6,7,8-tetrahydroquinolin-2-yl)acetamide] has an IC50 [1] of 100 to 500 nM, an inhibition at 1 µM [2] of 65% and an inhibition at 10 µM [2] of 99%. For the same compound, the IC50 [2] was > 300 nM.
`CCS(=O)(=O)c1ccc(CC(=O)Nc2cc(C)c3c(n2)CCC(C)(c2cc(C)nc(C)n2)C3=O)cc1` (stereo not drawn) [Compound 28, N-(6-(2,6-dimethylpyrimidin-4-yl)-4,6-dimethyl-5-oxo-5,6,7,8-tetrahydroquinolin-2-yl)-2-(4-(ethylsulfonyl)phenyl)acetamide] was tested, and the IC50 [1] was 100 to 500 nM, the inhibition at 1 µM [2] was 77% and the inhibition at 10 µM [2] was 100%. It also gave an IC50 [2] of 150 to 300 nM.
In the case of `CCS(=O)(=O)c1ccc(CC(=O)Nc2cc(C)c3c(n2)CCC(C)(c2nc(C)cc(C)n2)C3=O)cc1` (stereo not drawn) [Compound 29, N-(6-(4,6-dimethylpyrimidin-2-yl)-4,6-dimethyl-5-oxo-5,6,7,8-tetrahydroquinolin-2-yl)-2-(4-(ethylsulfonyl)phenyl)acetamide], the IC50 [1] is reported as < 100 nM, the inhibition at 1 µM [2] is reported as 84% and the inhibition at 10 µM [2] is reported as 91%. It also gave an IC50 [2] of 150 to 300 nM.
With `CCS(=O)(=O)c1ccc(CC(=O)Nc2cc(C)c3c(n2)CCC(C)(c2ccc(OC)nn2)C3=O)cc1` (stereo not drawn) [Compound 31, 2-(4-(ethylsulfonyl)phenyl)-N-(6-(6-methoxypyridazin-3-yl)-4,6-dimethyl-5-oxo-5,6,7,8-tetrahydroquinolin-2-yl)acetamide] the IC50 [1] was < 100 nM, the inhibition at 1 µM [2] was 90% and the inhibition at 10 µM [2] was 88%. For the same compound, the IC50 [2] was < 150 nM.
With `CCS(=O)(=O)c1ccc(CC(=O)Nc2cc(C)c3c(n2)CCC(C)(c2ccc(C)nn2)C3=O)cc1` (stereo not drawn) [Compound 34, N-(4,6-dimethyl-6-(6-methylpyridazin-3-yl)-5-oxo-5,6,7,8-tetrahydroquinolin-2-yl)-2-(4-(ethylsulfonyl)phenyl)acetamide] the IC50 [1] was > 500 nM, the inhibition at 1 µM [2] was 74% and the inhibition at 10 µM [2] was 97%. For the same compound, the IC50 [2] was > 300 nM.
`COc1ccc(C2(C)CCc3nc(NC(=O)Cc4ccc(S(C)(=O)=O)cc4)cc(C)c3C2=O)nn1` (stereo not drawn) [Compound 35, N-(6-(6-methoxypyridazin-3-yl)-4,6-dimethyl-5-oxo-5,6,7,8-tetrahydroquinolin-2-yl)-2-(4-(methylsulfonyl)phenyl)acetamide] was tested, and the IC50 [1] was 100 to 500 nM, the inhibition at 1 µM [2] was 80% and the inhibition at 10 µM [2] was 98%. For the same compound, the IC50 [2] was 150 to 300 nM.
For `CCS(=O)(=O)c1ccc(CC(=O)Nc2ccc3c(n2)CCC(C)(c2ccc(O)nc2)C3=O)cc1` (stereo not drawn) [Compound 40, 2-(4-(ethylsulfonyl)phenyl)-N-(6-(6-hydroxypyridin-3-yl)-6-methyl-5-oxo-5,6,7,8-tetrahydroquinolin-2-yl)acetamide], the IC50 [1] was > 500 nM, the inhibition at 1 µM [2] was 44% and the inhibition at 10 µM [2] was 88%.
For `CCc1ccc(C2(C)CCc3nc(NC(=O)Cc4ccc(S(=O)(=O)CC)cc4)ccc3C2=O)nn1` (stereo not drawn) [Compound 41, N-(6-(6-ethylpyridazin-3-yl)-6-methyl-5-oxo-5,6,7,8-tetrahydroquinolin-2-yl)-2-(4-(ethylsulfonyl)phenyl)acetamide], the IC50 [1] was > 500 nM, the inhibition at 1 µM [2] was 47% and the inhibition at 10 µM [2] was 82%.
`CCS(=O)(=O)c1ccc(CC(=O)Nc2ccc3c(n2)CCC(C)(c2ccc(C)s2)C3=O)cc1` (stereo not drawn) [Compound 45, 2-(4-(ethylsulfonyl)phenyl)-N-(6-methyl-6-(5-methylthiophen-2-yl)-5-oxo-5,6,7,8-tetrahydroquinolin-2-yl)acetamide] was tested, and the IC50 [1] was < 100 nM, the inhibition at 1 µM [2] was 66% and the inhibition at 10 µM [2] was 73%.
In the case of `CCS(=O)(=O)c1ccc(CC(=O)Nc2ccc3c(n2)CCC(C)(c2nccn4c(C)cnc24)C3=O)cc1` (stereo not drawn) [Compound 49, 2-(4-(ethylsulfonyl)phenyl)-N-(6-methyl-6-(3-methylimidazo[1,2-a]pyrazin-8-yl)-5-oxo-5,6,7,8-tetrahydroquinolin-2-yl)acetamide], the IC50 [1] is reported as 100 to 500 nM, the inhibition at 1 µM [2] is reported as 93% and the inhibition at 10 µM [2] is reported as 82%. It also gave an IC50 [2] of 150 to 300 nM.
`CCS(=O)(=O)c1ccc(CC(=O)Nc2ccc3c(n2)CCC(C)(c2ccnc(C(C)C)n2)C3=O)cc1` (stereo not drawn) [Compound 50, 2-(4-(ethylsulfonyl)phenyl)-N-(6-(2-isopropylpyrimidin-4-yl)-6-methyl-5-oxo-5,6,7,8-tetrahydroquinolin-2-yl)acetamide] was tested, and the IC50 [1] was 100 to 500 nM, the inhibition at 1 µM [2] was 91% and the inhibition at 10 µM [2] was 90%. The IC50 [2] was < 150 nM.
With `CCS(=O)(=O)c1ccc(CC(=O)Nc2ccc3c(n2)CCC(C)(c2ncc(OC)cn2)C3=O)cc1` (stereo not drawn) [Compound 56, 2-(4-(ethylsulfonyl)phenyl)-N-(6-(5-methoxypyrimidin-2-yl)-6-methyl-5-oxo-5,6,7,8-tetrahydroquinolin-2-yl)acetamide] the IC50 [1] was < 100 nM, the inhibition at 1 µM [2] was 96% and the inhibition at 10 µM [2] was 94%. For the same compound, the IC50 [2] was < 150 nM.
With `CCS(=O)(=O)c1ccc(CC(=O)Nc2ccc3c(n2)CCC(C)(c2ccc(C(C)C)nn2)C3=O)cc1` (stereo not drawn) [Compound 62, 2-(4-(ethylsulfonyl)phenyl)-N-(6-(6-isopropylpyridazin-3-yl)-6-methyl-5-oxo-5,6,7,8-tetrahydroquinolin-2-yl)acetamide] the IC50 [1] was > 500 nM, the inhibition at 1 µM [2] was 96% and the inhibition at 10 µM [2] was 91%. For the same compound, the IC50 [2] was < 150 nM.
`CCS(=O)(=O)c1ccc(CC(=O)Nc2cc(C)c3c(n2)CCC(C)(c2ccc(O)cn2)C3=O)cc1` (stereo not drawn) [Compound 88, 2-(4-(ethylsulfonyl)phenyl)-N-(6-(5-hydroxypyridin-2-yl)-4,6-dimethyl-5-oxo-5,6,7,8-tetrahydroquinolin-2-yl)acetamide] was tested, and the IC50 [1] was > 500 nM, the inhibition at 1 µM [2] was 86% and the inhibition at 10 µM [2] was 90%. For the same compound, the IC50 [2] was 150 to 300 nM.
`Cc1cc(NC(=O)Cc2ccc(S(C)(=O)=O)cc2)nc2c1C(=O)C(C)(c1ncccc1O)CC2` (stereo not drawn) [Compound 89, N-(6-(3-hydroxypyridin-2-yl)-4,6-dimethyl-5-oxo-5,6,7,8-tetrahydroquinolin-2-yl)-2-(4-(methylsulfonyl)phenyl)acetamide] was tested, and the IC50 [1] was > 500 nM, the inhibition at 1 µM [2] was 53% and the inhibition at 10 µM [2] was 79%. The IC50 [2] was > 300 nM.
With `CCS(=O)(=O)c1ccc(CC(=O)Nc2ccc3c(n2)CC(C)(C)C(c2ccc(O)cn2)C3=O)cc1` (stereo not drawn) [Compound 90, 2-(4-(ethylsulfonyl)phenyl)-N-(6-(5-hydroxypyridin-2-yl)-7,7-dimethyl-5-oxo-5,6,7,8-tetrahydroquinolin-2-yl)acetamide] the IC50 [1] was > 500 nM, the inhibition at 1 µM [2] was 57% and the inhibition at 10 µM [2] was 84%. For the same compound, the IC50 [2] was 150 to 300 nM.
In the case of `CCS(=O)(=O)c1ccc(CC(=O)Nc2ccc3c(n2)CC(C)C(c2ncccc2O)C3=O)cc1` (stereo not drawn) [Compound 91, 2-(4-(ethylsulfonyl)phenyl)-N-(6-(3-hydroxypyridin-2-yl)-7-methyl-5-oxo-5,6,7,8-tetrahydroquinolin-2-yl)acetamide], the IC50 [1] is reported as > 500 nM, the inhibition at 1 µM [2] is reported as 36% and the inhibition at 10 µM [2] is reported as 100%. For the same compound, the IC50 [2] was > 300 nM.
